{
  "source": "ChEMBL document CHEMBL1201862",
  "about": "“PubChem BioAssay data set” (2004)",
  "key": {"HeLa": {"test_system": "HeLa", "experiment": "Cytotoxicity counterscreen assay for transcriptional activators of heat shock protein 70 (Hsp70). [Related pubchem assays: 1203, 1252 ]", "type": "functional", "settings": "Homo sapiens"}, "BJ": {"test_system": "BJ", "experiment": "BJ-TERT-LT-ST fibroblast viability loss – cell-based, RAS-independent, luminescence, dose response (AID 1935);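 also: BJ fibroblasts immortalized with TERT plus LT and ST oncogenes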", "type": "functional", "settings": "Homo sapiens"}, "[1]": {"target": "T1, Heat shock factor protein 1 (Mus musculus, UniProt P38532)", "T1 sequence (P38532 whole entry)": "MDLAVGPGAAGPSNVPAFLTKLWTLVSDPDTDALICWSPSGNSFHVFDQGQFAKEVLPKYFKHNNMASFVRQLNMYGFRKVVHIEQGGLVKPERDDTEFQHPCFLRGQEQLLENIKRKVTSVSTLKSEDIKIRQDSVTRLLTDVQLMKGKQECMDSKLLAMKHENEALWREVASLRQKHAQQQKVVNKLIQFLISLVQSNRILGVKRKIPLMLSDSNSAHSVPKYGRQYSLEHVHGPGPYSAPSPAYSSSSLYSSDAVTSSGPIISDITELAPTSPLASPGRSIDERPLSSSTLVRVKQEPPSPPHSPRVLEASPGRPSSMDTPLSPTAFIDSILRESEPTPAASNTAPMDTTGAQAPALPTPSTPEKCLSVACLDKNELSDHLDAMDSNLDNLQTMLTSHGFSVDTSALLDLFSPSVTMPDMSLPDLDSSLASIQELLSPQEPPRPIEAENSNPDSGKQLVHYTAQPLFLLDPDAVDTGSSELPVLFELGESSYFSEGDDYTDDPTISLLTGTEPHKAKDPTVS", "experiment": "decrease of HSF1-responsive luciferase luminescence – cell-based, NIH3T3, dose retest, confirmation (AID 2382);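 also: NIH3T3 fibroblasts with HSF1-driven luciferase reporter stressed by proteasome inhibitor MG132; luminescence from HSF1-driven luciferase expression after 8 hours of MG132 stress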", "type": "functional"}, "Caspase-3": {"target": "T2, Caspase-3 (Homo sapiens, UniProt P42574)", "T2 sequence (P42574 whole entry)": "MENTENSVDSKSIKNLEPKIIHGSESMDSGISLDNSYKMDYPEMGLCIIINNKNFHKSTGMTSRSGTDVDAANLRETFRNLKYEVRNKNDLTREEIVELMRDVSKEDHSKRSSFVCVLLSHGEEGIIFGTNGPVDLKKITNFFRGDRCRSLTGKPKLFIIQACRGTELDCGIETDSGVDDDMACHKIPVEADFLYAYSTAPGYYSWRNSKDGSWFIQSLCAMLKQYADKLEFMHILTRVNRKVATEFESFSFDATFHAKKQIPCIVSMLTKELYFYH", "experiment": "SAR Analysis of small molecule inhibitors of Sentrin-specific proteases (SENPs) using a Caspase-3 Selectivity assay. [Related pubchem assays (depositor defined):AID2540, AID2599, AID434973, AID489001]", "type": "functional"}, "[2]": {"experiment": "viability of uninfected HEp-2 cells – cell-based, HTS, cytotoxicity control for RSV inhibitor project, dose response (AID 2410)", "type": "functional", "settings": "human respiratory syncytial virus"}, "Vero [3]": {"test_system": "Vero", "experiment": "cells", "type": "functional, cell-based", "settings": "Chlorocebus sabaeus"}, "[4]": {"target": "T3, Sentrin-specific protease 7 (Homo sapiens, UniProt Q9BQF6)", "T3 sequence (Q9BQF6 whole entry)": "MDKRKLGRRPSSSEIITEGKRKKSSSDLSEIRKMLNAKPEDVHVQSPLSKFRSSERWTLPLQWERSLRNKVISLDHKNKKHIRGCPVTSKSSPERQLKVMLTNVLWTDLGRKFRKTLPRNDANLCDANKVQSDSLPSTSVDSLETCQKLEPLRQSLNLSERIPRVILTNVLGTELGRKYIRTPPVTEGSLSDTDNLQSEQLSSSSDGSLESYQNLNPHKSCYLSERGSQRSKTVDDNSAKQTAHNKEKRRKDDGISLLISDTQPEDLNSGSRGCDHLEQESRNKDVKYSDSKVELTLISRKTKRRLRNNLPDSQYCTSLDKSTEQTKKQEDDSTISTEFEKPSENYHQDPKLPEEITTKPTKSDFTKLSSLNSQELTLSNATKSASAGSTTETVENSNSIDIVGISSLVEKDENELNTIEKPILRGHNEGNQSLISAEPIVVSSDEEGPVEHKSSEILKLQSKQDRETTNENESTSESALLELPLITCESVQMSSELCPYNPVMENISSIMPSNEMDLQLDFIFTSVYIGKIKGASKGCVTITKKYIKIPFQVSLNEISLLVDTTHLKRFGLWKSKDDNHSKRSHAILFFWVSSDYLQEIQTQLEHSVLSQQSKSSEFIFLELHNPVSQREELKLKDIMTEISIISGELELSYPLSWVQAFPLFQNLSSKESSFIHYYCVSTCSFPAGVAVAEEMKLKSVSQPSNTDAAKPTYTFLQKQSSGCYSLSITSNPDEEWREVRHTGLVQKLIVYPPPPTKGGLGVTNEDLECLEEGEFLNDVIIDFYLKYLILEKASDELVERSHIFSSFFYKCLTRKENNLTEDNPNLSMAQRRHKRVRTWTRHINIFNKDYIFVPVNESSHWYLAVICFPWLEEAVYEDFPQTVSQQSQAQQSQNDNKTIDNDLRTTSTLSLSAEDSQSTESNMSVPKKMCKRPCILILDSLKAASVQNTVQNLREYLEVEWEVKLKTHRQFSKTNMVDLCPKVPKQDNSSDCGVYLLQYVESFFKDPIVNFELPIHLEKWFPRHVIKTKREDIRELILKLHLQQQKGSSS", "experiment": "inhibition of human SENP7 cleavage activity – biochemical, luminescence, SAR follow-up (AID 504497)", "type": "functional"}, "Vero [5]": {"test_system": "Vero", "experiment": "cells", "type": "functional", "settings": "Chlorocebus sabaeus"}, "[6]": {"target": "Serine/threonine-protein phosphatase PP1-alpha catalytic subunit (Homo sapiens, UniProt P62136)", "sequence (P62136 whole entry)": "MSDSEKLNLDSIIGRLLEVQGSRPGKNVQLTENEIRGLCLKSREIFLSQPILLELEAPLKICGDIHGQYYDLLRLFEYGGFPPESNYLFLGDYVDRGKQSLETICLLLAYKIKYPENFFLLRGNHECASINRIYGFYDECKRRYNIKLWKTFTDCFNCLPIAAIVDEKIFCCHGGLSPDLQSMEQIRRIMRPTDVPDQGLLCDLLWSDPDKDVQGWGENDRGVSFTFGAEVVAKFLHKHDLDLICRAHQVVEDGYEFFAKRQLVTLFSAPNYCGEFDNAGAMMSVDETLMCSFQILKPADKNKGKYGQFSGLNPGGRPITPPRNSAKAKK", "experiment": "inhibition of protein phosphatase 1 activity – biochemical, fluorescence, dose response (AID 2394)"}, "Cysteine protease ATG4B": {"target": "T4, Cysteine protease ATG4B (Homo sapiens, UniProt Q9Y4P1)", "T4 sequence (Q9Y4P1 whole entry)": "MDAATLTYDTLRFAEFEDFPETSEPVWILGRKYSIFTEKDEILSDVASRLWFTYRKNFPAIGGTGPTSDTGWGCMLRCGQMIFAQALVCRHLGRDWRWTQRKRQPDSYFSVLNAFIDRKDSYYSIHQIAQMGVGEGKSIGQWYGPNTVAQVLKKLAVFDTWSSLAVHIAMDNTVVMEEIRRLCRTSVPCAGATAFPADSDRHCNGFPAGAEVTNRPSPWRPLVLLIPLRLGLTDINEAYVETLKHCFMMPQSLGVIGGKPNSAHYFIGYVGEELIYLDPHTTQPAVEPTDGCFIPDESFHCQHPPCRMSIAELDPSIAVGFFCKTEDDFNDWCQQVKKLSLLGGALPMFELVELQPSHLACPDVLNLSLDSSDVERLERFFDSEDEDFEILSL", "type": "functional"}, "Phospholipase A2": {"target": "Phospholipase A2 (Homo sapiens, UniProt P04054)", "sequence (P04054 whole entry)": "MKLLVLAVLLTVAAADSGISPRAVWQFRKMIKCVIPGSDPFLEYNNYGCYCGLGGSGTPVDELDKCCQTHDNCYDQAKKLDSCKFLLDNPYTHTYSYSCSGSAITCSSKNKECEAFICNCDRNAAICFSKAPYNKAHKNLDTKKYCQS", "type": "functional"}, "[7]": {"experiment": "viability of PTEN-deleted HCT116 cells – cell-based, HCT116 PTEN knockout, dose response (AID 1047);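 also: HCT116 colon tumor cells with PTEN knocked out; cells exposed to compound for 60 hours before readout; potency for loss of cell viability measured by luminescence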", "type": "functional"}, "Beta-galactosidase": {"target": "Beta-galactosidase (Escherichia coli, UniProt Q8VNN2)", "sequence (Q8VNN2 whole entry)": "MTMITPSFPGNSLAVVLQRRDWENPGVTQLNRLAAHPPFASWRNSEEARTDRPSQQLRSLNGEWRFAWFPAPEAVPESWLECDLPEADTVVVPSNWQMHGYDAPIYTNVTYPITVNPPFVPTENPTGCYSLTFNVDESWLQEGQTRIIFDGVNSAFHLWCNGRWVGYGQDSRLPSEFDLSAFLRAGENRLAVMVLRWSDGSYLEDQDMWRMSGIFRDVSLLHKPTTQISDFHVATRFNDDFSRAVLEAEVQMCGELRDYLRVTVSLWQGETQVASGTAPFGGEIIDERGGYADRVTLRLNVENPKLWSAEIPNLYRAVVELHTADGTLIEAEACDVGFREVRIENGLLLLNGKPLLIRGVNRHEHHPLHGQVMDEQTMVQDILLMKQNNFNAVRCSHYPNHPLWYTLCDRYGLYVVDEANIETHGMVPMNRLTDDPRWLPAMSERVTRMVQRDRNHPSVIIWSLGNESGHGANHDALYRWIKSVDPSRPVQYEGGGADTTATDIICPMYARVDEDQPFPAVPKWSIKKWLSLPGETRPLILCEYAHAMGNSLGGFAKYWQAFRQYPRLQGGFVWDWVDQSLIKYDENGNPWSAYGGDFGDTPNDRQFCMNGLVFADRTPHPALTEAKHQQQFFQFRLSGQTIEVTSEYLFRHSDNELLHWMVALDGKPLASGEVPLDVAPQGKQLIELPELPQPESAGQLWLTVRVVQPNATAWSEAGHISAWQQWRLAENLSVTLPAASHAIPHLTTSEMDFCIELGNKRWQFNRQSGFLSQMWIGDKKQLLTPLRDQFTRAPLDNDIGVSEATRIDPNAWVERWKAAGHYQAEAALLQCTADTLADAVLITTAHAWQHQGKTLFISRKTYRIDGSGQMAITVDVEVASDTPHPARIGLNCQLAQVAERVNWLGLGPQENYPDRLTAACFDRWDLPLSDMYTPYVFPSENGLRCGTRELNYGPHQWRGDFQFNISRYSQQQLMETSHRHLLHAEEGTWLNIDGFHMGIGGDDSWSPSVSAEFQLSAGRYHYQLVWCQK", "experiment": "detection-enzyme interference by beta-gal modulators – biochemical, E. coli enzyme, set 3, artefact control for CCR6 antagonist project, dose response (AID 504712)", "type": "functional"}},
  "note": "Calls of active or inactive are those of the source.",
  "data": [
    {"smiles": "COC(=O)C[C@]1(C(=O)OC)CN(C#N)N(c2ccc(Cl)cc2)C12c1ccccc1-c1ccccc12", "values": [
      {"measurement": "CC50", "setting": "HeLa", "value": "3.55 µM (active)"},
      {"measurement": "EC50", "setting": "BJ", "value": "2.78 µM (inconclusive)"},
      {"measurement": "EC50", "setting": "[1]", "value": "2.74 µM (active)"}
    ]},
    {"smiles": "O=C(Nc1ccc(C#Cc2ccccc2)cc1)C1CC1", "values": [
      {"measurement": "IC50", "setting": "Caspase-3", "value": "19.7 µM (active)"},
      {"measurement": "IC50", "setting": "cells", "value": "7.09 µM (active)"},
      {"measurement": "CC50", "setting": "[2]", "value": "26.9 µM (active)"},
      {"measurement": "IC50", "setting": "Vero [3]", "value": "> 12.5 µM (active)"},
      {"measurement": "IC50", "setting": "[4]", "value": "3.28 µM (active)"},
      {"measurement": "CC50", "setting": "Vero [5]", "value": "> 25 µM (active)"}
    ]},
    {"smiles": "CCCCn1c(NC(=O)c2ccco2)c(C(=O)OCC)c2nc3ccccc3nc21", "values": [
      {"measurement": "IC50", "setting": "[6]", "value": "62.5 µM (not active)"}
    ]},
    {"smiles": "Cc1ccccc1NC1=C/C(=N\\S(=O)(=O)c2ccc(C(=O)O)cc2)c2ccccc2C1=O", "values": [
      {"measurement": "IC50", "setting": "Cysteine protease ATG4B", "value": "5.85 µM (active)"},
      {"measurement": "IC50", "setting": "Phospholipase A2", "value": "15.4 µM (active)"}
    ]},
    {"smiles": "Cc1ccc(NC2=C/C(=N/S(=O)(=O)c3cccs3)c3ccccc3C2=O)cc1", "values": [
      {"measurement": "EC50", "setting": "[7]", "value": "3.56 µM (active)"},
      {"measurement": "IC50", "setting": "Beta-galactosidase", "value": "50.8 µM (inactive)"}
    ]}
  ]
}
